Where a name gives a salt, the structure may show the parent alone.

For the first assay, the system named is Pseudomonas aeruginosa (ATCC 27853). The experiment in a line: Minimum Inhibitory Concentration (MIC), CLSI broth microdilution. The following applies: ATCC27853, 35±1° C., 18±2 h, concentration which completely inhibited growth. Format: cell-based. How it is done:
A. Minimum Inhibitory Concentration (MIC)
Minimum Inhibitory Concentrations (MICS) were determined for Escherichia coli (American Type Culture Collection (ATCC) 25922) and Pseudomonas aeruginosa (ATCC 27853) in accordance with the Clinical and Laboratory Standards Institute (CLSI). Serial, one-half dilutions of compounds were prepared in 96-well dilution blocks in cation-adjusted Mueller-Hinton Broth (MBH)+2% DMSO and transferred to 96-well assay plates in duplicate. Cell suspensions of E. coli and P. aeruginosa were prepared in MHB and added to each well at concentrations of approximately 1.2×10^6 and 3.3×10^6 colony-forming-units per milliliter (cfu/mL), respectively. The inoculated plates were incubated at 35±1° C. for 18±2 h. At the completion of incubation the wells of each plate were evaluated visually for the presence of growth. […] In addition to visual evaluation, optical densities were determined using a Tecan Infinite M200 microplate reader measuring absorbance at 600 nm.
As for `NNC(=O)c1cc(-c2ccc(C#Cc3ccc(C(=O)N4CCCC[C@H]4C(=O)O)cc3Cl)cc2)nc2ccncc12` [Example 202, (S)-1-(3-chloro-4-((4-(4-(hydrazinecarbonyl)-1,6-naphthyridin-2-yl)phenyl)ethynyl)benzoyl)piperidine-2-carboxylic acid hydrochloride], the MIC (in general, the lowest concentration found to suppress growth) worked out at 128 µg/mL.

The target of another assay is T1, LpxC (Pseudomonas aeruginosa, UniProt P47205).
T1 sequence (P47205 1-303): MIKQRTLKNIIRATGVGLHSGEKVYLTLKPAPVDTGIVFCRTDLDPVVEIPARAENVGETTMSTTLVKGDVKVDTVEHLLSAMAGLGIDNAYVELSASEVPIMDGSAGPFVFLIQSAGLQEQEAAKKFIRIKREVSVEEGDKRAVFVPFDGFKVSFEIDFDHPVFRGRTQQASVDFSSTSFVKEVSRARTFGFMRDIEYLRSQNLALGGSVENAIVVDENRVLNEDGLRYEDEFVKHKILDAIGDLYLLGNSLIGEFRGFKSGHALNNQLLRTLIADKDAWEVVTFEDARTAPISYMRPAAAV
The experiment in a line: Inhibition of LpxC Enzyme. Format: biochemical. The following applies: LpxC enzyme is pseudomonas construct. How it is done: [The source words this procedure for another target and reports this target under the same test.] A. Inhibition of LpxC Enzyme
Test compounds were dissolved in 100% DMSO @ 10 mM. Then a series of dilutions were done with 100% DMSO, these were the first intermediate dilutions. Individual 100% DMSO dilutions were diluted independently to another intermediate dilution using assay buffer (bringing the DMSO concentration to 5%). Finally, 10 μl of all these 5% intermediate dilutions were used directly in the 50 μl reaction, making the final DMSO testing concentration at 1%. The enzymatic reactions were conducted in duplicate at room temperature for 1 hour in a 50 μL mixture containing MMP-2 assay buffer, 1 μM Mca-PLGLDpaAR, 10 uL MPP-2 enzyme (1.8 ng) and 10 μL of a test compound. All the reactions were conducted using 10 μl MMP-2 assay buffer in place of enzyme, to detect just the background fluorescence from the compound. After enzymatic reactions, fluorescence intensity was measured at an excitation of 328 nm and an emission of 393 nm using a Tecan Infinite M1000™ microplate reader.
In the case of `NNC(=O)c1cc(-c2ccc(-c3ccc(-c4cc(C(=O)N5CCCCC5C(=O)O)on4)cc3)cc2)nc2ccncc12` (racemic) [Example 115, 1-(3-(4′-(4-(hydrazinecarbonyl)-1,6-naphthyridin-2-yl)-[1,1′-biphenyl]-4-yl)isoxazole-5-carbonyl)piperidine-2-carboxylic acid], the midpoint of inhibition, the IC50, lay at 8 nM.
`CCC(C)C(NC(=O)c1ccc(C#Cc2ccc(-c3cc(C(=O)NN)c4cnccc4n3)cc2)cc1)C(=O)O` (racemic) [Example 172, 2-(4-((4-(4-(hydrazinecarbonyl)-1,6-naphthyridin-2-yl)phenyl)ethynyl)benzamido)-3-methylpentanoic acid]: the IC50 (as a rule, the concentration that gives 50% inhibition) is 18 nM.
`O=C(NO)[C@@H](Cc1ccc2ccccc2c1)NS(=O)(=O)c1ccc2ccccc2c1` [BB-78485] gave an IC50 of 20 nM.
Same read-out and setting: next, `NNC(=O)c1cc(-c2ccc(-c3ccc(-c4cc(C(=O)N5CCC[C@@H]5C(=O)O)on4)cc3)cc2)nc2ccncc12` [Example 31, (R)-1-(3-(4′-(4-(hydrazinecarbonyl)-1,6-naphthyridin-2-yl)-[1,1′-biphenyl]-4-yl)isoxazole-5-carbonyl)pyrrolidine-2-carboxylic acid hydrochloride]: 4 nM; `CS(=O)(=O)NCc1cc(-c2ccc(-c3ccc(-c4cc(C(=O)NN)c5cnccc5n4)cc3)cc2)no1` [Example 35, N-((3-(4′-(4-(hydrazinecarbonyl)-1,6-naphthyridin-2-yl)-[1,1′-biphenyl]-4-yl)isoxazol-5-yl)methyl)methanesulfonamide]: 2 nM.
Still for that read-out and setting: in the case of `O=C(O)CCCOc1ccc(-c2ccc(-c3cc(N4C(=O)CNC4=S)c4cnccc4n3)cc2)cc1` [Example 83, 4-((4′-(4-(5-oxo-2-thioxoimidazolidin-1-yl)-1,6-naphthyridin-2-yl)-[1,1′-biphenyl]-4-yl)oxy)butanoic acid] it was 4 nM.
Still for that read-out and setting: next, `NNC(=O)c1cc(-c2ccc(-c3ccc(OCCNS(=O)(=O)C(F)(F)F)cc3)cc2)nc2ccncc12` [Example 101]: 6 nM.
`NNC(=O)c1cc(-c2ccc(C#Cc3ccc(NS(=O)(=O)C(F)(F)F)cc3)cc2)nc2ccncc12` [Example 185, 1,1,1-trifluoro-N-(4-((4-(4-(hydrazinecarbonyl)-1,6-naphthyridin-2-yl)phenyl)ethynyl)phenyl)methanesulfonamide]: inhibition was half-maximal at 5 nM (IC50).
`NNC(=O)c1cc(-c2ccc(C#Cc3ccc(C(=O)N4CCCC[C@H]4C(=O)O)cc3Cl)cc2)nc2ccncc12` [Example 202, (S)-1-(3-chloro-4-((4-(4-(hydrazinecarbonyl)-1,6-naphthyridin-2-yl)phenyl)ethynyl)benzoyl)piperidine-2-carboxylic acid hydrochloride] displayed an IC50 of 2 nM.
As for `CS(=O)(=O)Nc1cc2nc(-c3ccc(C#Cc4ccc(C(=O)N5CCCC[C@H]5C(=O)O)cc4Cl)cc3)cc(C(=O)NN)c2cn1` [Example 309, (S)-1-(3-chloro-(4-((4-(4-(hydrazinecarbonyl)-7-(methylsulfonamido)-1,6-naphthyridin-2-yl)phenyl)ethynyl)benzoyl)piperidine-2-carboxylic acid hydrochloride], half-maximal inhibition (IC50) was put at 2 nM.
Compound `CS(=O)(=O)Nc1cc2nc(-c3ccc(-c4ccc(-c5cc(CO)on5)cc4)cc3)cc(C(=O)NN)c2cn1` [Example 327, N-(4-(hydrazinecarbonyl)-2-(4′-(5-(hydroxymethyl)isoxazol-3-yl)-[1,1′-biphenyl]-4-yl)-1,6-naphthyridin-7-yl) methanesulfonamide hydrochloride] yielded a 50% inhibitory concentration (IC50) of 5 nM.
On the same count and under the same terms, in the case of `NNC(=O)c1cc(-c2ccc(-c3ccc(-c4cc(CO)on4)cc3)cc2)nc2cc(NS(=O)(=O)CC(=O)O)ncc12` [Example 328, 2-(N-(4-(hydrazinecarbonyl)-2-(4′-(5-(hydroxymethyl)isoxazol-3-yl)-[1,1′-biphenyl]-4-yl)-1,6-naphthyridin-7-yl)sulfamoyl)acetic acid hydrochloride] it was 2 nM.

For the origin of these results see US9663488B2, “Metalloenzyme inhibitor compounds” (Viamet Pharmaceuticals, Inc., priority 2013, dated 2017).
